According to patent publication US20230048132A1, “CYCLIN-DEPENDENT KINASE INHIBITORS” (SPV THERAPEUTICS INC., priority 2018, published 2023):
Where two headings read alike, the source gives them in different places.

How the values were obtained:
CDK6-CYCLIND3 = biological target: T1, CDK6-CYCLIND3 (Homo sapiens, UniProt Q00534); assay: CDK inhibition assay (microfluidic LabChip, IC50 format); format: biochemical
T1 construct: purchased Carna

CDK4-CYCLIND1 = CDK4-CYCLIND1 (Homo sapiens, UniProt P11802); assay: as above
[1] = Table 4b, upper part, read-out: CDK6 IC50
[2] = CDK4 IC50, Table 4b, upper part
[3] = Table 4b, lower part, read-out: CDK6 CyclinD3 IC50
[4] = CDK4 CyclinD1 IC50, Table 4b, lower part, a second value in parentheses for some compounds
[5] = Table 3, second value of the cell CDK4/CDK6, value of the racemate, read-out: Racemate Activity CDK6
[6] = Racemate Activity CDK4, Table 3, first value of the cell CDK4/CDK6, value of the racemate

Sequence of CDK4-CYCLIND1 (P11802 whole entry): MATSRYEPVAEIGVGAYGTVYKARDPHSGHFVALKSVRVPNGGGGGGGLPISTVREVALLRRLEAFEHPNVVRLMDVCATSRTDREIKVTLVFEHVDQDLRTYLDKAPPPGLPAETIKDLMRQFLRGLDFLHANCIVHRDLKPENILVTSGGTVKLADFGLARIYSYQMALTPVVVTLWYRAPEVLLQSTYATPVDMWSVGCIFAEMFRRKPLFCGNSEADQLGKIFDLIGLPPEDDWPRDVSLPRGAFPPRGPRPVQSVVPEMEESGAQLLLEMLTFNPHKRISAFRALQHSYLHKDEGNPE
Sequence of CDK4-CYCLIND1 (P24385 whole entry partner): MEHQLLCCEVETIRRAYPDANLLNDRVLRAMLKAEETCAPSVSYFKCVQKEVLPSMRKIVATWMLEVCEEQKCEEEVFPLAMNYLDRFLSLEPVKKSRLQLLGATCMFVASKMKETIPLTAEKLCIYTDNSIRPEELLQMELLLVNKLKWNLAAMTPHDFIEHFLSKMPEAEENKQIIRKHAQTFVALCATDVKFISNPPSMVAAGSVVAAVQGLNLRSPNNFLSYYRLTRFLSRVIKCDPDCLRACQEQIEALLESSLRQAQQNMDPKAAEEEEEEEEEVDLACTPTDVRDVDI
T1 sequence (Q00534 whole entry): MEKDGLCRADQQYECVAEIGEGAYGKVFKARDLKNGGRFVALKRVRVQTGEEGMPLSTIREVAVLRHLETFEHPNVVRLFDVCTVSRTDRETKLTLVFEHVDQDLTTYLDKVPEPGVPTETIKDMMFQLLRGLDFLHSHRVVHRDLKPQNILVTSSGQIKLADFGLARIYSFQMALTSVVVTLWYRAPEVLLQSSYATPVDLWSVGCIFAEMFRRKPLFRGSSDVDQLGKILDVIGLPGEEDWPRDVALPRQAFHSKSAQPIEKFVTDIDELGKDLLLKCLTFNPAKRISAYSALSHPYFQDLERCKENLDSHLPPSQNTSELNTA
T1 sequence (P30281 whole entry partner): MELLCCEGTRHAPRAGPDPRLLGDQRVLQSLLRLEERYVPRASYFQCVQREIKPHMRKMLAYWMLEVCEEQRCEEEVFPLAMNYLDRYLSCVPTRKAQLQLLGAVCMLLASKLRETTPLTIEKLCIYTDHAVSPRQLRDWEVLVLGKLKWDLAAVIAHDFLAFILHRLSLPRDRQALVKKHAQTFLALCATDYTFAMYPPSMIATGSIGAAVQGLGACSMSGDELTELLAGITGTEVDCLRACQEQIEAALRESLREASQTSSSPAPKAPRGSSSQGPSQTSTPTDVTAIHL

| SMILES | IC50 (CDK6-CYCLIND3; [1]) | IC50 (CDK4-CYCLIND1; [2]) | also measured |
| --- | --- | --- | --- |
| CC(C)N1CCN(c2ccc(Nc3ncc4c(n3)N(C3CCCC3)C(=O)C3(CCNC3=O)C4)c(F)c2)CC1 (stereo not shown) [Example D33, 8-cyclopentyl-2-((2-fluoro-4-(4-isopropylpiperazin-1-yl)phenyl)amino)-5,8-dihydro-7H-spiro[pyrido[2,3-d]pyrimidine-6,3′-pyrrolidine]-2′,7-dione] | 22600 nM | 9340 nM |  |
| O=C1NCC[C@@]12Cc1cnc(Nc3ccc(OCCN4CCCCC4)nc3)nc1N(C1CCCC1)C2=O [Example D192, (S)-8-cyclopentyl-2-((6-(2-(piperidin-1-yl)ethoxy)pyridin-3-yl)amino)-5,8-dihydro-7H-spiro[pyrido[2,3-d]pyrimidine-6,3′-pyrrolidine]-2′,7-dione] |  |  | IC50 (CDK6-CYCLIND3; [3]): 8.52 nM; IC50 (CDK4-CYCLIND1; [4]): 4.58 nM |
| CN1CCN(c2ccc(Nc3ncc4c(n3)N(C3CCCC3)C(=O)C3(CCNC3=O)C4)cc2F)CC1 (stereo not shown) [Example D12, 8-cyclopentyl-2-((3-fluoro-4-(4-methylpiperazin-1-yl)phenyl)amino)-5,8-dihydro-7H-spiro[pyrido[2,3-d]pyrimidine-6,3′-pyrrolidine]-2′,7-dione] | 2.86 nM | 1.83 nM | IC50 (CDK6-CYCLIND3; [5]): 2.9 nM; IC50 (CDK4-CYCLIND1; [6]): 1.8 nM |
| CN1CCN(c2ccc(Nc3ncc4c(n3)N(C35CC(C3)C5)C(=O)[C@@]3(CCNC3=O)C4)cc2F)CC1 [Example D197, (R)-8-(bicyclo[1.1.1]pentan-1-yl)-2-((3-fluoro-4-(4-methylpiperazin-1-yl)phenyl)amino)-5,8-dihydro-7H-spiro[pyrido[2,3-d]pyrimidine-6,3′-pyrrolidine]-2′,7-dione] |  |  | IC50 (CDK6-CYCLIND3; [3]): 5380 nM; IC50 (CDK4-CYCLIND1; [4]): 2220 nM |
| CN1CCN(c2ccc(Nc3ncc4c(n3)N(C3CCCC3)C(=O)C3(CCNC3=O)C4)cc2)CC1 (stereo not shown) [Example D4, 8-cyclopentyl-2-((4-(4-methylpiperazin-1-yl)phenyl)amino)-5,8-dihydro-7H-spiro[pyrido[2,3-d]pyrimidine-6,3′-pyrrolidine]-2′,7-dione] | 4.9 nM |  |  |
| CC(C)N1CCN(c2ccc(Nc3ncc4c(n3)N(C3CCCC3)C(=O)C3(CC(=O)N(C)C3=O)C4)cc2)CC1 (stereo not shown) [Example D22, 8-cyclopentyl-2-((4-(4-isopropylpiperazin-1-yl)phenyl)amino)-1′-methyl-5,8-dihydro-7H-spiro[pyrido[2,3-d]pyrimidine-6,3′-pyrrolidine]-2′,5′,7-trione] | 129 nM | 28.6 nM |  |
| Cc1cc(Nc2ncc3c(n2)N(C2CCCC2)C(=O)C2(CCNC2=O)C3)ccc1N1CCN(C(C)C)CC1 (stereo not shown) [Example D36, 8-cyclopentyl-2-((4-(4-isopropylpiperazin-1-yl)-3-methylphenyl)amino)-5,8-dihydro-7H-spiro[pyrido[2,3-d]pyrimidine-6,3′-pyrrolidine]-2′,7-dione] | 4.53 nM | 1.96 nM |  |
| CN1CCN(c2ccc(Nc3ncc4c(n3)N(C3CCCC3)C(=O)C3(CCNC3=O)C4)nc2)CC1 (stereo not shown) [Example D8, 8-cyclopentyl-2-((5-(4-methylpiperazin-1-yl)pyridin-2-yl)amino)-5,8-dihydro-7H-spiro[pyrido[2,3-d]pyrimidine-6,3′-pyrrolidine]-2′,7-dione] | 3.92 nM | 2.06 nM |  |
| CN(C)CCOc1ccc(Nc2ncc3c(n2)N(C2CCCC2)C(=O)C2(CC(=O)N(C)C2=O)C3)cc1 (stereo not shown) [Example D28, 8-cyclopentyl-2-((4-(2-(dimethylamino)ethoxy)phenyl)amino)-1′-methyl-5,8-dihydro-7H-spiro[pyrido[2,3-d]pyrimidine-6,3′-pyrrolidine]-2′,5′,7-trione] | 491 nM | 155 nM |  |
| CN1CCN(c2ccc(Nc3ncc4c(n3)N(C3CCCC3)C(=O)C3(CCN(C)C3=O)C4)cc2F)CC1 (stereo not shown) [Example D19, 8-cyclopentyl-2-((3-fluoro-4-(4-methylpiperazin-1-yl)phenyl)amino)-1′-methyl-5,8-dihydro-7H-spiro[pyrido[2,3-d]pyrimidine-6,3′-pyrrolidine]-2′,7-dione] | 97.2 nM | 33.6 nM |  |
| O=C1NCC[C@]12Cc1cnc(Nc3ccc(N4CCNCC4)c(F)c3)nc1N(C13CC(C1)C3)C2=O [Example D196, (R)-8-(bicyclo[1.1.1]pentan-1-yl)-2-((3-fluoro-4-(piperazin-1-yl)phenyl)amino)-5,8-dihydro-7H-spiro[pyrido[2,3-d]pyrimidine-6,3′-pyrrolidine]-2′,7-dione] |  |  | IC50 (CDK6-CYCLIND3; [3]): 2400 nM; IC50 (CDK4-CYCLIND1; [4]): 1250 nM |
| CC(C)n1cc(-c2ccc(Nc3ncc4c(n3)N(C3CCCC3)C(=O)[C@]3(CCNC3=O)C4)cc2)cn1 [Example D195, (S)-8-cyclopentyl-2-((4-(1-isopropyl-1H-pyrazol-4-yl)phenyl)amino)-5,8-dihydro-7H-spiro[pyrido[2,3-d]pyrimidine-6,3′-pyrrolidine]-2′,7-dione] |  |  | IC50 (CDK6-CYCLIND3; [3]): 33.7 nM; IC50 (CDK4-CYCLIND1; [4]): 23 nM |
| O=C1NCCC12Cc1cnc(Nc3ccc(N4CCNCC4)cc3)nc1N(C1CCCC1)C2=O (stereo not shown) [Example D3, 8-cyclopentyl-2-((4-(piperazin-1-yl)phenyl)amino)-5,8-dihydro-7H-spiro[pyrido[2,3-d]pyrimidine-6,3′-pyrrolidine]-2′,7-dione] | 6.03 nM | 2.81 nM | IC50 (CDK6-CYCLIND3; [5]): 6.03 nM; IC50 (CDK4-CYCLIND1; [6]): 2.81 nM |
| O=C1NCCC12Cc1cnc(Nc3ccc(N4CCNCC4)cc3F)nc1N(C1CCCC1)C2=O (stereo not shown) [Example D32, 8-cyclopentyl-2-((2-fluoro-4-(piperazin-1-yl)phenyl)amino)-5,8-dihydro-7H-spiro[pyrido[2,3-d]pyrimidine-6,3′-pyrrolidine]-2′,7-dione] | 11.2 nM | 5.16 nM |  |
| CN(C)CCOc1ccc(Nc2ncc3c(n2)N(C2CCCC2)C(=O)C2(CCNC2=O)C3)cc1 (stereo not shown) [Example D13, 8-cyclopentyl-2-((4-(2-(dimethylamino)ethoxy)phenyl)amino)-5,8-dihydro-7H-spiro[pyrido[2,3-d]pyrimidine-6,3′-pyrrolidine]-2′,7-dione] | 6.38 nM | 3.35 nM |  |
| CN1C(=O)CC2(Cc3cnc(Nc4ccc(OCCN5CCCC5)c(F)c4)nc3N(C3CCCC3)C2=O)C1=O (stereo not shown) [Example D30, 8-cyclopentyl-2-((3-fluoro-4-(2-(pyrrolidin-1-yl)ethoxy)phenyl)amino)-1′-methyl-5,8-dihydro-7H-spiro[pyrido[2,3-d]pyrimidine-6,3′-pyrrolidine]-2′,5′,7-trione] | 1450 nM | 472 nM |  |
| O=C1NCC[C@@]12Cc1cnc(Nc3ccc(N4CCC(N5CCOCC5)CC4)nc3)nc1N(C1CCCC1)C2=O [Example D193, (S)-8-cyclopentyl-2-((6-(4-morpholinopiperidin-1-yl)pyridin-3-yl)amino)-5,8-dihydro-7H-spiro[pyrido[2,3-d]pyrimidine-6,3′-pyrrolidine]-2′,7-dione] |  |  | IC50 (CDK6-CYCLIND3; [3]): 2.32 nM; IC50 (CDK4-CYCLIND1; [4]): 1.54 nM |
| O=C1NCC[C@@]12Cc1cnc(N3CC4(CNC4)C3)nc1N(C1CCCC1)C2=O [Example D198, (S)-8-cyclopentyl-2-(2,6-diazaspiro[3.3]heptan-2-yl)-5,8-dihydro-7H-spiro[pyrido[2,3-d]pyrimidine-6,3′-pyrrolidine]-2′,7-dione] |  |  | IC50 (CDK6-CYCLIND3; [3]): 16200 nM |

The next lines start with results.

| IC50 (CDK6-CYCLIND3; [1]) | IC50 (CDK4-CYCLIND1; [2]) | SMILES | also measured |
| --- | --- | --- | --- |
| 5.46 nM | 2.68 nM | CN(C)[C@H]1CCN(c2ccc(Nc3ncc4c(n3)N(C3CCCC3)C(=O)C3(CCNC3=O)C4)cc2F)C1 (stereo partly drawn) [Example D45, 8-cyclopentyl-2-((4-((S)-3-(dimethylamino)pyrrolidin-1-yl)-3-fluorophenyl)amino)-5,8-dihydro-7H-spiro[pyrido[2,3-d]pyrimidine-6,3′-pyrrolidine]-2′,7-dione] |  |
| 5.53 nM | 1.95 nM | CN(C)[C@H]1CCN(C(=O)c2ccc(Nc3ncc4c(n3)N(C3CCCC3)C(=O)C3(CCNC3=O)C4)cc2F)C1 (stereo partly drawn) [Example D48, 8-cyclopentyl-2-((4-((S)-3-(dimethylamino)pyrrolidine-1-carbonyl)-3-fluorophenyl)amino)-5,8-dihydro-7H-spiro[pyrido[2,3-d]pyrimidine-6,3′-pyrrolidine]-2′,7-dione] |  |
| 24.6 nM | 12 nM | CN(C)[C@H]1CCN(c2ccc(Nc3ncc4c(n3)N(C3CCCC3)C(=O)C3(CCNC3=O)C4)cc2)C1 (stereo partly drawn) [Example D44, 8-cyclopentyl-2-((4-((S)-3-(dimethylamino)pyrrolidin-1-yl)phenyl)amino)-5,8-dihydro-7H-spiro[pyrido[2,3-d]pyrimidine-6,3′-pyrrolidine]-2′,7-dione] |  |
| 4.95 nM | 2.42 nM | O=C1NCCC12Cc1cnc(Nc3ccc(N4CC5(CNC5)C4)c(F)c3)nc1N(C1CCCC1)C2=O (stereo not shown) [Example D43] |  |
| 8.12 nM | 3.18 nM | COc1cc(Nc2ncc3c(n2)N(C2CCCC2)C(=O)C2(CCNC2=O)C3)ccc1N1CCN(C(C)C)CC1 (stereo not shown) [Example D37, 8-cyclopentyl-2-((4-(4-isopropylpiperazin-1-yl)-3-methoxyphenyl)amino)-5,8-dihydro-7H-spiro[pyrido[2,3-d]pyrimidine-6,3′-pyrrolidine]-2′,7-dione] |  |
| 6.19 nM | 2.72 nM | O=C1NCCC12Cc1cnc(Nc3ccc(N4CC5(CNC5)C4)nc3)nc1N(C1CCCC1)C2=O (stereo not shown) [Example D42, 2-((6-(2,6-diazaspiro[3.3]heptan-2-yl)pyridin-3-yl)amino)-8-cyclopentyl-5,8-dihydro-7H-spiro[pyrido[2,3-d]pyrimidine-6,3′-pyrrolidine]-2′,7-dione] |  |
| 10.6 nM | 3.37 nM | CN(C)[C@H]1CCN(C(=O)c2ccc(Nc3ncc4c(n3)N(C3CCCC3)C(=O)C3(CCNC3=O)C4)cn2)C1 (stereo partly drawn) [Example D47, 8-cyclopentyl-2-((6-((S)-3-(dimethylamino)pyrrolidine-1-carbonyl)pyridin-3-yl)amino)-5,8-dihydro-7H-spiro[pyrido[2,3-d]pyrimidine-6,3′-pyrrolidine]-2′,7-dione] |  |
